Where two headings read alike, the source gives them in different places. Bounds are passed on as bounds.

These results are taken from US10472341B2, “Bicyclic tetrahydrothiazepine derivatives useful for the treatment of neoplastic and/or infectious diseases” (APEIRON BIOLOGICS AG, priority 2015, dated 2019).

Assay [1] has as its system aCD3/aCD28-stimulated human PBMCs. The assay is described as follows: Cytokine production in aCD3/aCD28 stimulated human PBMCs. Format: cell-based. As to conditions: PBMC, 18 h. The gist of the method: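 Ficoll-isolated human PBMCs at 1e6 cells/mL in X-Vivo15, stimulated with soluble anti-CD3/CD28 (OKT3 and 28.2, 1 μg/mL each) plus compound for 18 h at 37° C. Supernatant cytokines quantified by MSD or HTRF.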

The test system of assay [2] is aCD3/aCD28-stimulated human CD4+-T-cells. The assay is described as follows: IL-2 production and activation markers in aCD3/aCD28 stimulated isolated human CD4+-T-cells. Format: cell-based. As to conditions: IL-2 production at 3 μM compound. The gist of the method:
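CD4+ T cells isolated from buffy-coat PBMCs by microbeads were plated in Xvivo medium (1.5*10^5 cells/well) and stimulated with anti-CD3/28 mAbs plus compound. IL-2 measured by ELISA in supernatants at 24 h or 48 h; CD25 and proliferation by flow cytometry, CD69 at 24 h. Activity classes based on IL-2 at 3 μM compound.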

The mark [3] stands for this setting: enhancement of IFN-γ production, read-out: Activity Class IFN-γ.
The mark [4] stands for this setting: enhancement of IL-2 production, read-out: Activity Class IL-2.

Turning to `CC(C)NC(=O)c1ccc2c(c1)N(Cc1ccc(Cl)c(Cl)c1)C(=O)[C@@H](N)CS2(=O)=O.Cl` [Example 88, (3R)-3-amino-5-[(3,4-dichlorophenyl)methyl]-1,1,4-trioxo-N-(propan-2-yl)-2,3,4,5-tetrahydro-1λ^6,5-benzothiazepine-7-carboxamide hydrochloride], the results for the EC50 in assay [1] (setting [3]) and in assay [1] (setting [4]) were 1580 to 5010 nM and greater than 5010 nM, respectively. In addition, in assay [2], the “Activity Class CD4+” value was “C (IL-2 production at 3 μM compound concentration between 2-fold increase as compared to mean IL-2 production of stimulated cells in the absence of compounds and <2 ng/mL)”.

On to `CC(C)NC(=O)c1ccc2c(c1)N(Cc1ccc(Cl)c(F)c1)C(=O)[C@@H](N)CS2(=O)=O.Cl` [Example 89, (3R)-3-amino-5-[(4-chloro-3-fluorophenyl)methyl]-1,1,4-trioxo-N-(propan-2-yl)-2,3,4,5-tetrahydro-1λ^6,5-benzothiazepine-7-carboxamide hydrochloride], for which the results for the EC50 in assay [1] (setting [3]) and in assay [1] (setting [4]) were 1580 to 5010 nM and greater than 5010 nM, respectively. For the same compound, in assay [2], the “Activity Class CD4+” value was “C (IL-2 production at 3 μM compound concentration between 2-fold increase as compared to mean IL-2 production of stimulated cells in the absence of compounds and <2 ng/mL)”.

Turning to `Cl.N[C@H]1CS(=O)(=O)c2cc(F)c(C(=O)NCC(F)(F)F)cc2N(Cc2ccc(Cl)cc2)C1=O` [Example 92, (3R)-3-amino-5-[(4-chlorophenyl)methyl]-8-fluoro-1,1,4-trioxo-N-(2,2,2-trifluoro-ethyl)-2,3,4,5-tetrahydro-1λ^6,5-benzothiazepine-7-carboxamide hydrochloride], the EC50 in assay [1] (setting [3]) and in assay [1] (setting [4]) was 1580 to 5010 nM in each case. In addition, in assay [2], the “Activity Class CD4+” value is recorded as “B (IL-2 production at 3 μM compound concentration between 2-10 ng/mL)”.

As for `Cl.N[C@H]1CS(=O)(=O)c2cc(F)c(C(=O)NCCC(F)(F)F)cc2N(Cc2ccc(Cl)cc2)C1=O` [Example 93, (3R)-3-amino-5-[(4-chlorophenyl)methyl]-8-fluoro-1,1,4-trioxo-N-(3,3,3-trifluoro-propyl)-2,3,4,5-tetrahydro-1λ^6,5-benzothiazepine-7-carboxamide hydrochloride], the results for the EC50 in assay [1] (setting [3]) and in assay [1] (setting [4]) were 1580 to 5010 nM and less than 1580 nM, respectively. Further, the “Activity Class CD4+” value in assay [2] is given as “A (IL-2 production at 3 μM compound concentration >10 ng/mL)”.

As to `C[C@H](NC(=O)c1cc2c(cc1F)S(=O)(=O)C[C@H](N)C(=O)N2Cc1ccc(Cl)cc1)C(F)(F)F.Cl` [Example 94, (3R)-3-amino-5-[(4-chlorophenyl)methyl]-8-fluoro-1,1,4-trioxo-N-[(2S)-1,1,1-trifluoropropan-2-yl]-2,3,4,5-tetrahydro-1λ^6,5-benzothiazepine-7-carboxamide hydrochloride], the EC50 in assay [1] (setting [3]) is 1580 to 5010 nM; in assay [1] (setting [4]), greater than 5010 nM. For the same compound, in assay [2], the “Activity Class CD4+” value is “C (IL-2 production at 3 μM compound concentration between 2-fold increase as compared to mean IL-2 production of stimulated cells in the absence of compounds and <2 ng/mL)”.

Take `CCC(C)NC(=O)c1cc2c(cc1F)S(=O)(=O)C[C@H](N)C(=O)N2Cc1ccc(Cl)cc1.Cl` (stereo partly drawn) [Example 95, (3R)-3-amino-N-(butan-2-yl)-5-[(4-chlorophenyl)methyl]-8-fluoro-1,1,4-trioxo-2,3,4,5-tetrahydro-1λ^6,5-benzothiazepine-7-carboxamide hydrochloride]: the figures for the EC50 in assay [1] (setting [3]) and in assay [1] (setting [4]) were less than 1580 nM and 1580 to 5010 nM, respectively. In assay [2], the “Activity Class CD4+” value is reported as “B (IL-2 production at 3 μM compound concentration between 2-10 ng/mL)”.

In the case of `CC(C)(C)NC(=O)c1cc2c(cc1F)S(=O)(=O)C[C@H](N)C(=O)N2Cc1ccc(Cl)cc1.Cl` [Example 96, (3R)-3-amino-N-tert-butyl-5-[(4-chlorophenyl)methyl]-8-fluoro-1,1,4-trioxo-2,3,4,5-tetrahydro-1λ^6,5-benzothiazepine-7-carboxamide hydrochloride], the EC50 in assay [1] (setting [3]) and in assay [1] (setting [4]) was less than 1580 nM each time. Moreover, the “Activity Class CD4+” value in assay [2] is given as “A (IL-2 production at 3 μM compound concentration >10 ng/mL)”.

`Cl.N[C@H]1CS(=O)(=O)c2cc(F)c(C(=O)N[C@H]3C[C@@H]3c3ccccc3)cc2N(Cc2ccc(Cl)cc2)C1=O` [Example 98, (3R)-3-amino-5-[(4-chlorophenyl)methyl]-8-fluoro-1,1,4-trioxo-N-[(1S,2R)-2-phenylcyclopropyl]-2,3,4,5-tetrahydro-1λ^6,5-benzothiazepine-7-carboxamide hydrochloride]: the EC50 in assay [1] (setting [3]) and in assay [1] (setting [4]) was less than 1580 nM each time. In assay [2], the “Activity Class CD4+” value was “A (IL-2 production at 3 μM compound concentration >10 ng/mL)”.

As for `CC1(NC(=O)c2cc3c(cc2F)S(=O)(=O)C[C@H](N)C(=O)N3Cc2ccc(Cl)cc2)CC1.Cl` [Example 99, (3R)-3-amino-5-[(4-chlorophenyl)methyl]-8-fluoro-N-(1-methylcyclopropyl)-1,1,4-trioxo-2,3,4,5-tetrahydro-1λ^6,5-benzothiazepine-7-carboxamide hydrochloride], the EC50 in assay [1] (setting [3]) and in assay [1] (setting [4]) was 1580 to 5010 nM each time. Also, the “Activity Class CD4+” value in assay [2] is recorded as “B (IL-2 production at 3 μM compound concentration between 2-10 ng/mL)”.

Take `CC1(NC(=O)c2cc3c(cc2F)S(=O)(=O)C[C@H](N)C(=O)N3Cc2ccc(Cl)cc2)CCC1.Cl` [Example 100, (3R)-3-amino-5-[(4-chlorophenyl)methyl]-8-fluoro-N-(1-methylcyclobutyl)-1,1,4-trioxo-2,3,4,5-tetrahydro-1λ^6,5-benzothiazepine-7-carboxamide hydrochloride]: the EC50 in assay [1] (setting [3]) and in assay [1] (setting [4]) was less than 1580 nM each time. For the same compound, the “Activity Class CD4+” value in assay [2] is given as “A (IL-2 production at 3 μM compound concentration >10 ng/mL)”.

Take `CC1(C)CC1NC(=O)c1cc2c(cc1F)S(=O)(=O)C[C@H](N)C(=O)N2Cc1ccc(Cl)cc1.Cl` (stereo partly drawn) [Example 101, (3R)-3-amino-5-[(4-chlorophenyl)methyl]-N-(2,2-dimethylcyclopropyl)-8-fluoro-1,1,4-trioxo-2,3,4,5-tetrahydro-1λ^6,5-benzothiazepine-7-carboxamide hydrochloride]: the EC50 in assay [1] (setting [3]) was less than 1580 nM; in assay [1] (setting [4]) it was 1580 to 5010 nM. In addition, the “Activity Class CD4+” value in assay [2] is “B (IL-2 production at 3 μM compound concentration between 2-10 ng/mL)”.

Take `Cl.N[C@H]1CS(=O)(=O)c2cc(F)c(C(=O)NC3CC(F)(F)C3)cc2N(Cc2ccc(Cl)cc2)C1=O` [Example 102, (3R)-3-amino-5-[(4-chlorophenyl)methyl]-N-(3,3-difluorocyclobutyl)-8-fluoro-1,1,4-trioxo-2,3,4,5-tetrahydro-1λ^6,5-benzothiazepine-7-carboxamide hydrochloride]: the EC50 in assay [1] (setting [3]) and in assay [1] (setting [4]) was less than 1580 nM throughout. In addition, in assay [2], the “Activity Class CD4+” value was “A (IL-2 production at 3 μM compound concentration >10 ng/mL)”.

As for `Cl.N[C@H]1CS(=O)(=O)c2cc(F)c(C(=O)NCc3ccccc3)cc2N(Cc2ccc(Cl)cc2)C1=O` [Example 103, (3R)-3-amino-N-benzyl-5-[(4-chlorophenyl)methyl]-8-fluoro-1,1,4-trioxo-2,3,4,5-tetrahydro-1λ^6,5-benzothiazepine-7-carboxamide hydrochloride], the EC50 in assay [1] (setting [3]) and in assay [1] (setting [4]) was less than 1580 nM throughout. For the same compound, the “Activity Class CD4+” value in assay [2] was “A (IL-2 production at 3 μM compound concentration >10 ng/mL)”.

As to `CCCCCCCNC(=O)c1cc2c(cc1F)S(=O)(=O)C[C@H](N)C(=O)N2Cc1ccc(Cl)cc1.Cl` [Example 104, (3R)-3-amino-5-[(4-chlorophenyl)methyl]-8-fluoro-N-heptyl-1,1,4-trioxo-2,3,4,5-tetrahydro-1λ^6,5-benzothiazepine-7-carboxamide hydrochloride], the EC50 in assay [1] (setting [3]) and in assay [1] (setting [4]) was less than 1580 nM in each case. The “Activity Class CD4+” value in assay [2] was “A (IL-2 production at 3 μM compound concentration >10 ng/mL)”.

For the compound `C[C@@H]1[C@H](N)C(=O)N(Cc2ccc(Cl)cc2)c2cc(C(=O)NC3CC3(F)F)ccc2S1(=O)=O.Cl` (stereo partly drawn) [Example 108, (2R,3R)-3-amino-5-[(4-chlorophenyl)methyl]-N-(2,2-difluorocyclopropyl)-2-methyl-1,1,4-trioxo-2,3,4,5-tetrahydro-1λ^6,5-benzothiazepine-7-carboxamide hydrochloride], the EC50 in assay [1] (setting [3]) and in assay [1] (setting [4]) was greater than 5010 nM in each case. Also, the “Activity Class CD4+” value in assay [2] was “C (IL-2 production at 3 μM compound concentration between 2-fold increase as compared to mean IL-2 production of stimulated cells in the absence of compounds and <2 ng/mL)”.

As for `CCCCCCCCCCCCCCCCNC(=O)c1cc2c(cc1F)S(=O)(=O)C[C@H](N)C(=O)N2Cc1ccc(Cl)cc1.Cl` [Example 109, (3R)-3-amino-5-[(4-chlorophenyl)methyl]-8-fluoro-N-hexadecyl-1,1,4-trioxo-2,3,4,5-tetrahydro-1λ^6,5-benzothiazepine-7-carboxamide hydrochloride], the EC50 in assay [1] (setting [3]) and in assay [1] (setting [4]) was less than 1580 nM each time. In assay [2], the “Activity Class CD4+” value was “A (IL-2 production at 3 μM compound concentration >10 ng/mL)”.

Turning to `Cl.N[C@H]1CS(=O)(=O)c2cc(F)c(C(=O)NCC3CC3)cc2N(Cc2ccc(Cl)cc2)C1=O` [Example 110, (3R)-3-amino-5-[(4-chlorophenyl)methyl]-N-(cyclopropylmethyl)-8-fluoro-1,1,4-trioxo-2,3,4,5-tetrahydro-1λ^6,5-benzothiazepine-7-carboxamide hydrochloride], the EC50 in assay [1] (setting [3]) and in assay [1] (setting [4]) was less than 1580 nM in each case. In addition, in assay [2], the “Activity Class CD4+” value was “A (IL-2 production at 3 μM compound concentration >10 ng/mL)”.
